Measurements as given in patent US20260193254A1, “2-OXOQUINAZOLINE CRYSTALLINE FORMS” (IDEAYA Biosciences, Inc., priority 2022, published 2026).
Values after ≈ are worked out from the molar mass of the structure shown.

Legend:
Type in all cases: physicochemical
[1] = Hygroscopicity: water sorption and desorption by dynamic vapor sorption (DVS); conditions: for hygroscopicity: DVS at 25° C., cycle 40-0-95-0-40% RH; for form change after the DVS test: XRPD after DVS
Experimental: In some embodiments, the crystalline form described herein is further characterized by is further characterized by a dynamic vapor sorption (DVS) profile. In some embodiments, a DVS is recorded according to the method as described herein with a cycle of 40-0-95-0-40% RH at 25° C.
Water sorption and desorption behaviors of Form A, Form C, Form D, and Form T were investigated by DVS at 25° C. with a cycle of 40-0-95-0-40% RH. Dm/dt was 0.002. Minimum equilibration time was 60 min. Maximum equilibration time was 360 min. XRPD was measured after DVS test to determine potential form change.

[2] = Grinding simulation experiments - dry grinding; conditions: for tolerance to dry grinding: ground manually with mortar and pestle, 5 min or 1 min, XRPD
Experimental: About 20 mg of Form A, Form D, and Form T were ground manually with a mortar and a pestle for 5 min or 1 min. Potential from transition and degree of crystallinity were evaluated by XRPD.

[3] = Grinding simulation experiments - wet grinding (granulation)
Experimental: Water or ethanol was added drop wise to about 20 mg of Form A, Form D, or Form T until solid was wetted sufficiently. Vortex was applied between each addition. Samples were dried under ambient condition for 10 min. Potential form transition and degree of crystallinity were evaluated by XRPD.

[4] = Bulk stability of crystalline forms; conditions: for Purity, Bulk (HPLC): Solid state; for Initial purity: before stress, HPLC; for chemical stability and physical stability (bulk stability): stressed under 25° C./92 RH, 40% C/75% RH and 60° C., XRPD and HPLC
Excerpt: (§1) Solids obtained after bulk stability study were characterized by XRPD and HPLC.

[5] = Equilibrium solubility in FeSSIF and FaSSIF; conditions: 24 hours; for Solubility: target concentration 1 mg/mL, HPLC method 1 or 2 (footnote); for impurity in solubility sample: no unit printed for impurity (column head mg/mL)
Experimental: Solid part and liquid part were separated by filtration. Solubility was measured by HPLC. Solid part (wet cake) was investigated by XRPD.

[6] = Intrinsic dissolution rate (IDR) evaluation in FaSSIF; conditions: FaSSIF at 37° C.
Experimental: Only one surface of the pellet was exposed (surface area=0.50 cm^2) to 900 mL FaSSIF, the dissolution medium. Temperature of chamber medium was set as 37±0.5° C. Shaft rotation as 100 rpm and sampling time points as 2 min, 5 min, 10 min, 15 min, 20 min, 25 min, 30 min, 35 min, 40 min, 50 min, 60 min, and 120 min. 2 mL sample solution was withdrawn at each time point and centrifuged at 14,000 rpm for 5 min to isolate supernatant. Then concentration of the supernatant was analyzed by HPLC. After 120 min, XRPD of disc surface was measured.

[7] = Bulk stability of crystalline forms; design: key: Color A: All No change of color; conditions: Solid state
Excerpt: as §1

[8] = Variable humidity and temperature XRPD experiments
Experimental: Based on DVS and DSC results of Form C, Form C starts to loss water when humidity is below 30% or when temperature is higher than about 44° C. […] In order to determine identity of potential form changes after the dehydration and upon the solid-solid transition, variable humidity and variable temperature XRPD techniques were applied. XRPD patterns of the sample were measured online under 25° C./ambient environment (initial)-120° C./N2 protection-25° C./ambient environment-25° C./80% RH (40 min)-25° C./0% RH (15 h), and 25° C./ambient environment (initial)-250° C./N2 protection-25° C./ambient environment. […] Form L coverts back to Form C after exposure to 25° C./80% RH for 40 min.
Based on DVS and DSC results of Form D, Form D starts to loss water when humidity is below 10% or when temperature is higher than 46° C. In order to determine identity of the dehydration product, variable humidity and variable temperature XRPD techniques were applied. XRPD patterns of the sample were measured online with a temperature cycle of 25° C./ambient environment (initial)-130° C./N2 protection (10 min)-25° C./N2 protection-25° C./ambient environment (3h) and two water sorption and desorption cycles of 50% RH (initial)-90% RH (3h)-60% RH (2h)-40% RH (2h)-20% RH (3h)-10% RH (3h)-0% RH (6h)-10% RH (3h)-20% RH (3h)-50% RH at 25° C. […] (higher than dehydration temperature). Form S converts back to Form D after exposure to ambient condition for 3 h.
In order to investigate potential form change of Form A upon heating, variable temperature XRPD technique was applied. XRPD patterns of the sample were measured online with a temperature cycle of 25° C. (initial)-50° C./N2 protection-70° C./N2 protection-250° C./N2 protection-25° C./N2 protection-25° C./ambient condition (3h). […] Form A converts to Form U when temperature is 250° C., and Form U converts to Form T after cooling to 25° C.

[9] = Variable humidity and temperature XRPD experiments; remark: listed apart in the source
[10] = 25° C./92% RH, open container, 1 week
[11] = 25° C./92% RH, open container, 2 weeks
[12] = 25° C./92% RH, open container, 4 weeks
[13] = 40° C./75% RH, open container, 1 week
[14] = 40° C./75% RH, open container, 2 weeks
[15] = 40° C./75% RH, open container, 4 weeks
[16] = 60° C., tight container, 1 week
[17] = 60° C., tight container, 2 weeks
[18] = 60° C., tight container, 4 weeks

For Nc1nc(=O)n(-c2ccccc2Cl)c2nc(C(F)(F)F)ccc12 [Form T, 4-Amino-1-(2-chlorophenyl)-7-(trifluoromethyl)pyrido[2,3-d]pyrimidin-2(1H)-one], the hygroscopicity [1] was “slightly hygroscopic”, the “form change after the DVS test” value [1] was “No form change” and the “XRPD after dry grinding” value ([2]; Dry grinding for 5 min) was “substantially amorphous”. The “tolerance to dry grinding” value [2] was “poor tolerance”, the “XRPD after wet grinding” value ([3]; Water) was “No form change” and the “form change after granulation with water” value ([3]; wet grinding, XRPD) was “no form change”. The “tolerance to granulation with water” value ([3]; wet grinding, XRPD) was “good tolerance”, the “Purity, Bulk (HPLC)” value [4, 10] was 99.1% and the “Purity, Bulk (HPLC)” value [4, 11] was 99.0%. For the same molecule, the “Purity, Bulk (HPLC)” value [4, 12] was 98.9%, the “Purity, Bulk (HPLC)” value [4, 13] was 98.9% and the “Purity, Bulk (HPLC)” value [4, 14] was 98.7%. For the same molecule, the “Purity, Bulk (HPLC)” value [4, 15] was 98.3%, the “Purity, Bulk (HPLC)” value [4, 16] was 99.1% and the “Purity, Bulk (HPLC)” value [4, 17] was 99.0%. The “Purity, Bulk (HPLC)” value [4, 18] was 98.7%, the Initial purity [4] was 99.1% and the “chemical stability and physical stability (bulk stability)” value [4] was “good chemical stability and physical stability”. The “XRPD of solid after solubility test” value ([5]; FaSSIF, pH 6.5, 37° C.) was “Form T”, the “final pH” value ([5]; FaSSIF, pH 6.5, 37° C.) was 6.5 and the Solubility ([5]; FaSSIF, pH 6.5, 37° C.) was 80 µg/mL (≈ 235 µM). For the same molecule, the “XRPD of solid after solubility test” value ([5]; FeSSIF, pH 5.0, 37° C.) was “Form T”, the “final pH” value ([5]; FeSSIF, pH 5.0, 37° C.) was 5.0 and the Solubility ([5]; FeSSIF, pH 5.0, 37° C.) was 160 µg/mL (≈ 470 µM). The “XRPD after IDR” value ([6]; disc surface after 120 min) was “No form change”, the “Concentration detected during IDR test (Comments)” value ([6]; for Form V and Form A remains same during the whole process, LOQ for Form T and amorphous form) was “<LOQ (0.0003 mg/mL” and the Color [7, 10] was “A”. For the same molecule, the Color [7, 11] was “A”, the Color [7, 12] was “A” and the Color [7, 13] was “A”. The Color [7, 14] was “A”, the Color [7, 15] was “A” and the Color [7, 16] was “A”. For the same molecule, the Color [7, 17] was “A” and the Color [7, 18] was “A”.
With Nc1nc(=O)n(-c2ccccc2Cl)c2nc(C(F)(F)F)ccc12 [Form D, 4-Amino-1-(2-chlorophenyl)-7-(trifluoromethyl)pyrido[2,3-d]pyrimidin-2(1H)-one] the “humidity at which water is absorbed again / water content restored (conversion back to the hydrate)” value ([1]; DVS and variable humidity XRPD, 25° C.) was “higher than 20 % RH”, the hygroscopicity [1] was “slightly hygroscopic” and the water uptake ([1]; DVS, from 40% to 95% RH, 25° C.) was “about 0.9%”. For the same molecule, the “form change after the DVS test” value [1] was “No form change”, the “XRPD (XRPD method 2)” value ([8]; VT13 25° C./55% RH (final)) was “Form D” and the “temperature above which the form starts to lose water” value ([8]; based on DSC results) was “higher than 46 °C”. For the same molecule, the “dehydration product (form obtained on loss of water)” value ([8]; low humidity or heating above the dehydration temperature) was “Form S”, the “XRPD after dry grinding” value ([2]; Dry grinding for 1 min) was “substantially amorphous” and the “XRPD after dry grinding” value ([2]; Dry grinding for 5 min) was “substantially amorphous”. The “tolerance to dry grinding” value [2] was “poor tolerance”, the “XRPD after wet grinding” value ([3]; Ethanol) was “substantially amorphous” and the “XRPD after wet grinding” value ([3]; Water) was “No form change”. The “form change after granulation with water” value ([3]; wet grinding, XRPD) was “no form change”, the “tolerance to granulation with ethanol or water” value ([3]; wet grinding, XRPD) was “poor tolerance” and the “tolerance to granulation with water” value ([3]; wet grinding, XRPD) was “good tolerance”. For the same molecule, the “Purity, Bulk (HPLC)” value [4, 10] was 98.0%, the “Purity, Bulk (HPLC)” value [4, 11] was 98.0% and the “Purity, Bulk (HPLC)” value [4, 13] was 98.1%. For the same molecule, the “Purity, Bulk (HPLC)” value [4, 14] was 98.2%, the “Purity, Bulk (HPLC)” value [4, 16] was 98.1% and the “Purity, Bulk (HPLC)” value [4, 17] was 97.8%. The Initial purity [4] was 98.0%, the “chemical stability and physical stability (bulk stability)” value [4] was “good chemical stability and physical stability” and the “XRPD of solid after solubility test” value ([5]; FaSSIF, pH 6.5, 37° C.) was “Form D”. For the same molecule, the “final pH” value ([5]; FaSSIF, pH 6.5, 37° C.) was 6.6, the Solubility ([5]; FaSSIF, pH 6.5, 37° C.) was 90 µg/mL (≈ 264 µM) and the “impurity in solubility sample” value ([5]; FaSSIF, pH 6.5, 37° C.) was “no impurity”. The “XRPD of solid after solubility test” value ([5]; FeSSIF, pH 5.0, 37° C.) was “Form D”, the “final pH” value ([5]; FeSSIF, pH 5.0, 37° C.) was 5.2 and the Solubility ([5]; FeSSIF, pH 5.0, 37° C.) was 210 µg/mL (≈ 616 µM). For the same molecule, the “impurity in solubility sample” value ([5]; FeSSIF, pH 5.0, 37° C.) was “no impurity”, the “XRPD (XRPD method 2)” value ([9]; VRH1 21° C./50% RH (initial)) was “Form D” and the “XRPD (XRPD method 2)” value ([9]; VRH2 21° C./90% RH (3 h)) was “Form D”. For the same molecule, the “XRPD (XRPD method 2)” value ([9]; VRH3 21° C./60% RH (2 h)) was “Form D”, the “XRPD (XRPD method 2)” value ([9]; VRH4 21° C./40% RH (2 h)) was “Form D” and the “XRPD (XRPD method 2)” value ([9]; VRH5 21° C./20% RH (3 h), desorption) was “Form D”. The “XRPD (XRPD method 2)” value ([9]; VRH6 21° C./10% RH (3 h), desorption) was “Form S”, the “XRPD (XRPD method 2)” value ([9]; VRH7 21° C./0% RH (6 h)) was “Form S” and the “XRPD (XRPD method 2)” value ([9]; VRH8 21° C./10% RH (3 h), after 0% RH) was “Form S”. For the same molecule, the “XRPD (XRPD method 2)” value ([9]; VRH9 21° C./20% RH (3 h), after 0% RH) was “Form S”, the “XRPD (XRPD method 2)” value ([9]; VRH10 21° C./50% RH (final)) was “Form D” and the “XRPD (XRPD method 2)” value ([9]; VT9 25° C./55% RH (initial)) was “Form D”. For the same molecule, the “XRPD (XRPD method 2)” value ([9]; VT10 130° C./55% RH (10 min)) was “Form S”, the “XRPD (XRPD method 2)” value ([9]; VT11 25° C./N2 protection (10 min)) was “Form S” and the “XRPD (XRPD method 2)” value ([9]; VT12 25° C./55% RH (3 h)) was “Form D”. The Color [7, 10] was “A”, the Color [7, 11] was “A” and the Color [7, 13] was “A”. The Color [7, 14] was “A”, the Color [7, 16] was “A” and the Color [7, 17] was “A”.
